Reference: US12685733B2, “Indole molecules and use thereof in the inhibition of DNA polymerases” (BioVentures, LLC, priority 2019, dated 2026)
pIC50: −log10 of the molar value. Read-outs that look alike come from different tables or passages of the source.

Columns and labels:
hpol η = biological target: T1, hpol η (Homo sapiens, UniProt Q9Y253); experiment: Fluorescence-based DNA polymerase activity assay; format: biochemical; conditions: for pIC50: 95% confidence interval in parentheses, read-out: IC50 for inhibition of hpol η
T1 construct: hpol η (residues 1-437); made in house
T1 sequence (Q9Y253 1-437): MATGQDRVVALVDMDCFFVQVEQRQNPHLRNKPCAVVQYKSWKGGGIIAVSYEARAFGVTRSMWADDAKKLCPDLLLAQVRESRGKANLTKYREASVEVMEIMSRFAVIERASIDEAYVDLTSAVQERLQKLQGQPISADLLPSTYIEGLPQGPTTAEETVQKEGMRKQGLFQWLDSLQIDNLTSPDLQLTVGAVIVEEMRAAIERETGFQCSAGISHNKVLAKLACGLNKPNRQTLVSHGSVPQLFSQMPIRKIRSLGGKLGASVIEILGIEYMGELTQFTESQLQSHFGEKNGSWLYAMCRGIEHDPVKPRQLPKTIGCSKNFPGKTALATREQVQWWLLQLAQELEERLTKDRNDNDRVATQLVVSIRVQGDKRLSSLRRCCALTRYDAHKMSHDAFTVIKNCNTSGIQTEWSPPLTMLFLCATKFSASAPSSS
Source text: The impact of IAG-10 on the affinity of hpol κ for DNA was an important insight and one that had not been observed previously with MK-886. It was reasoned that decreasing the concentration of either enzyme or DNA, might affect the IC50 value by shifting the equilibrium away from the formation of binary hpol c: DNA complex and toward the enzyme-inhibitor complex. To investigate this idea, the concentration of hpol and p/t-DNA was varied in the reaction mixture and measured the IC50 value for IAG-10. Decreasing the enzyme and DNA in solution led to a dramatic decrease in the IC50 for IAG-10 against hpol κ (FIG. 4A). […] Then, similar experiments were performed with hpol η by varying the concentration of enzyme and DNA in the reaction mixture an determining the IC50 value for IAG-10-mediated inhibition.

hpol β = biological target: T2, hpol β (Homo sapiens, UniProt P06746); experiment: Fluorescence-based polymerase assay, other pol families; format: biochemical; conditions: 10 μM; 1 nM hpol β (X-family)
T2 construct: gift of Dr. Samuel Wilson (NIEHS)

hpol λ = biological target: T3, hpol λ (Homo sapiens, UniProt Q9UGP5); experiment: as above; format: biochemical; conditions: 10 μM; 10 nM hpol λ (X-family)
T3 construct: hpol λ, residues 1-325; gift of Dr. Miguel Garcia-Diaz (Stony Brook University)
T3 sequence (Q9UGP5 242-575 limits assumed): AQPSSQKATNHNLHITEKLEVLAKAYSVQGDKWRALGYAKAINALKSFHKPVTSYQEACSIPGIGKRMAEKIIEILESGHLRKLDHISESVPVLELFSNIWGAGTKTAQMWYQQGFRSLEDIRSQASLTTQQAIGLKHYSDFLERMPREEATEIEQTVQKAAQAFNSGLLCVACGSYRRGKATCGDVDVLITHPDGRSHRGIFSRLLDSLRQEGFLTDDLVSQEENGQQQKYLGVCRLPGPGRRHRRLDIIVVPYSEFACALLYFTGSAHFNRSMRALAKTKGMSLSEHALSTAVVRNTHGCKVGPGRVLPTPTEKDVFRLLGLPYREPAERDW

NT2 cells = experiment: Clonogenic survival assay; format: cell-based, human; conditions: IAG-10 and TMZ in combination
MCF7 cells = experiment: BrdU ssDNA / propidium iodide flow cytometry; format: cell-based; conditions: PNR-7-48 0.5 μM + Mirin 100 μM, 48 hours
Method: MCF7 cells were plated in 60 mm dishes at a confluency of 300,000 cells per dish and incubated overnight. Cells were treated the next day with BrdU (10 μM). The compounds were diluted in DMSO and added to the media at a final concentration of PNR-7-48 (0.5 μM) and Mirin (100 μM). The final concentration of DMSO was 0.1% (v/v). After 48 hours of treatment, media was removed and cells were washed in 1×PBS and trypsinized. Cells were then resuspended in media and centrifuged at 1500 rpm (calculate relative centrifugal force, RCF) for 5 minutes. The supernatant was removed, and again cells were washed and centrifuged. The supernatant was discarded and cells were resuspended in ice-cold 70% (v/v) ethanol prepared in 1×PBS while being vortexed. After overnight fixing at 4° C., cells were vortexed and centrifuged at 3000 rpm (RCF) for 10 minutes. Ethanol was removed leaving residual amounts for cell resuspension by vortexing. Fixed cells were stained with fluorescent anti-BrdU antibodies (FITC mouse anti-BrdU kit; 556028; BD) without prior acid treatment to detect only ssDNA. To confirm that the experimental cells had incorporated BrdU, aliquots of all nuclei were also denatured using HCL and then neutralized with sodium borate before staining with the anti-BrdU antibody. […] Samples were analyzed using the BD FACSCalibur Flow Cytometer in the UAMS Flow Cytometry Core. […]

hpol κ = biological target: T4, hpol κ (Homo sapiens, UniProt Q9UBT6); experiment: Gel-based primer extension assay; format: biochemical; set-up: hpol κ (residues 19-526); made in house; conditions: 10 μM; 1 nM hpol κ
T4 sequence (Q9UBT6 19-526): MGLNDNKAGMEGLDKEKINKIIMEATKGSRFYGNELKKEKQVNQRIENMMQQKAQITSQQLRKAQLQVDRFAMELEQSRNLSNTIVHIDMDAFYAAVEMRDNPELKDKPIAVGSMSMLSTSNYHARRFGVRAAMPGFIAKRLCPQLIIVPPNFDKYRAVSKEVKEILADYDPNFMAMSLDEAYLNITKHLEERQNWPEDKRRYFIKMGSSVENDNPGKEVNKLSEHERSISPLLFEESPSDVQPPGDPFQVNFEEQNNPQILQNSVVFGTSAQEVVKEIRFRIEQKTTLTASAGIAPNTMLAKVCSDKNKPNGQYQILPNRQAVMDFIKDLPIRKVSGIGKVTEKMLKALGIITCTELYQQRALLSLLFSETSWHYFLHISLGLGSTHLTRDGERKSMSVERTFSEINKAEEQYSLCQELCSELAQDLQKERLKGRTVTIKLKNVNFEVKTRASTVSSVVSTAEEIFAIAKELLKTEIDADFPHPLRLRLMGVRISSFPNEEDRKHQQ

Cl.[H]/N=C(\N)NN=Cc1cn(C(=O)c2cccc3ccccc23)c2ccc(Cl)cc12 [IAG-10, (E)-2-((1-(1-naphthoyl)-5-chloro-1H-indol-3-y1)methylene)hydrazine-1-carboximidamide hydrochloride]
pIC50 (hpol η; 2 nM DNA): 4.65
pIC50 (hpol η; 50 nM DNA): 4.84
Michaelis constant, hpol η (hpol η; steady-state kinetics with increasing inhibitor concentration): linear increase
turnover number (kcat), hpol η (hpol η; steady-state kinetics with varying inhibitor concentration): no measurable change
polymerase activity relative to DMSO control (hpol β): only hpol κ activity was inhibited
polymerase activity relative to DMSO control (hpol λ): only hpol κ activity was inhibited
colony formation ability, combination (NT2 cells): did not exhibit changes in colony formation ability
cell death (sub-G1 cells) (MCF7 cells): increases
ssDNA gap formation (BrdU+ cells) (MCF7 cells): increases
polymerase activity relative to DMSO control (hpol κ): only hpol κ was inhibited
